According to ChEMBL document CHEMBL1201862, “PubChem BioAssay data set” (2004):
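Assay format: 96-well plates, 48-hour exposure. GI50 is the concentration that inhibits growth by half.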 Calls of active or inactive are those of the source. No stated cut-off is given here; in the data, active = GI50 up to about 1.1 µM and inactive = higher.

What was measured:
Experiment in all cases: inhibition of tumour cell growth, NCI panel, 48 h
[1] = system: BT-549
[2] = system: NCI-H460
[3] = system: SF-539
[4] = system: MDA-MB-231
[5] = system: SN12C
[6] = system: SNB-19
[7] = system: RXF 393
[8] = system: SK-MEL-2
[9] = system: HCT-15
[10] = system: OVCAR-5
[11] = system: Hs-578T
[12] = system: ACHN
[13] = system: HT-29
[14] = system: 786-0
[15] = system: DU-145
[16] = system: KM12

Compound | GI50 [1] | GI50 [2] | GI50 [3] | GI50 [4] | GI50 [5] | GI50 [6] | GI50 [7] | GI50 [8] | GI50 [9] | GI50 [10] | GI50 [11] | GI50 [12] | GI50 [13] | GI50 [14] | GI50 [15] | GI50 [16]
C/C(=N/NC(=S)N1CC2CCC(CC2)C1)c1cnccn1 | 0.993 µM (active) | < 0.0109 µM (active) | 0.109 µM (active) | < 0.01 µM (active) | < 0.0178 µM (active) | 0.406 µM (active) | 0.541 µM (active) | 0.278 µM (active) | < 0.01 µM | 0.255 µM (active) | 2.42 µM (inactive) | < 0.012 µM (active) | < 0.01 µM (active) | < 0.01 µM (active) | 0.376 µM (active) | –
CCCCCCC(=O)OC[n+]1cccc(-c2c(COC(=O)NC(C)C)c(COC(=O)NC(C)C)c3n2CCC3)c1 | 37.8 µM (inactive) | 14.5 µM (inactive) | 32.1 µM (inactive) | 47.3 µM (inactive) | 31 µM (inactive) | 90.6 µM (inactive) | 20.4 µM (inactive) | 26.7 µM (inactive) | 42.6 µM | > 58.9 µM (inactive) | > 57.4 µM (inactive) | 21.4 µM (inactive) | 40.6 µM (inactive) | 21.6 µM (inactive) | 35.9 µM (inactive) | > 100 µM (inactive)
O=C(O)Cc1ccc([N+](=O)[O-])cc1[N+](=O)[O-] | > 100 µM (inactive) | > 100 µM (inactive) | > 100 µM (inactive) | > 100 µM (inactive) | > 100 µM (inactive) | > 100 µM (inactive) | > 100 µM (inactive) | > 100 µM (inactive) | > 100 µM | > 100 µM (inactive) | 70.6 µM (inactive) | > 100 µM (inactive) | > 100 µM (inactive) | > 100 µM (inactive) | > 100 µM (inactive) | > 100 µM (inactive)
N=c1sc2ccccc2n1CC[S-].c1ccc2c(c1)sc1[n+]2CCS1 | 23.1 µM (inactive) | 14.4 µM (inactive) | 6.58 µM (inactive) | 17 µM (inactive) | 21.1 µM (inactive) | 19.3 µM (inactive) | 20.7 µM (inactive) | 18.2 µM (inactive) | 16.7 µM | 20.5 µM (inactive) | 42.6 µM (inactive) | 16.3 µM (inactive) | 19 µM (inactive) | 16.8 µM (inactive) | 21.2 µM (inactive) | 17.5 µM (inactive)
CCCC(CCN)(CCN)[N+](=O)[O-] | > 100 µM (inactive) | > 100 µM (inactive) | > 100 µM (inactive) | > 100 µM (inactive) | > 100 µM (inactive) | > 100 µM (inactive) | > 100 µM (inactive) | > 100 µM (inactive) | > 100 µM | > 100 µM (inactive) | > 100 µM (inactive) | > 100 µM (inactive) | > 100 µM (inactive) | > 100 µM (inactive) | > 100 µM (inactive) | > 100 µM (inactive)
COc1cc(/C=C2/SC(c3ccccc3)N(c3ccccc3Cl)C2=O)cc(OC)c1OC (centres undefined) | 28.2 µM (inactive) | 43.7 µM (inactive) | 19.7 µM (inactive) | 58.3 µM (inactive) | 23.7 µM (inactive) | 28.2 µM (inactive) | 20.7 µM (inactive) | 33.9 µM (inactive) | 31.6 µM | 69.5 µM (inactive) | 30 µM (inactive) | 58.1 µM (inactive) | – | 25.9 µM (inactive) | 45 µM (inactive) | 26.8 µM (inactive)
COc1cc(C(=O)/C=C/c2ccc(OCC#N)cc2)cc(OC)c1OC | 17.7 µM (inactive) | 28.8 µM (inactive) | 17.3 µM (inactive) | > 10 µM (inactive) | 18.9 µM (inactive) | 20.3 µM (inactive) | 18.1 µM (inactive) | – | 19.5 µM | 47.5 µM (inactive) | 25.1 µM (inactive) | 23.5 µM (inactive) | 31.7 µM (inactive) | 22.2 µM (inactive) | 28.1 µM (inactive) | 16 µM (inactive)
Cc1cccc(NC(=O)CC(=O)N2N=C(N3c4ccccc4Sc4ccccc43)CC2c2ccccc2)c1 (centres undefined) | > 100 µM (inactive) | > 100 µM (inactive) | > 100 µM (inactive) | > 100 µM (inactive) | > 100 µM (inactive) | > 100 µM (inactive) | > 100 µM (inactive) | > 100 µM (inactive) | > 100 µM | > 100 µM (inactive) | > 100 µM (inactive) | > 100 µM (inactive) | > 100 µM (inactive) | > 100 µM (inactive) | > 100 µM (inactive) | > 100 µM (inactive)
Nc1nc2cc3nc(N)c(N)nc3cc2nc1N | > 100 µM (inactive) | > 100 µM (inactive) | > 100 µM (inactive) | > 100 µM (inactive) | > 100 µM (inactive) | > 100 µM (inactive) | > 100 µM (inactive) | > 100 µM (inactive) | > 100 µM | > 100 µM (inactive) | > 100 µM (inactive) | > 100 µM (inactive) | > 100 µM (inactive) | > 100 µM (inactive) | > 100 µM (inactive) | > 100 µM (inactive)
CCOC(=O)C1(C#N)C(=O)c2cc[n+](CC[n+]3ccc4c(c3)C(=O)C(C#N)(C(=O)OCC)C4=O)cc2C1=O (centres undefined) | > 100 µM (inactive) | > 100 µM (inactive) | > 100 µM (inactive) | 60.5 µM (inactive) | > 100 µM (inactive) | > 100 µM (inactive) | > 100 µM (inactive) | 36.1 µM (inactive) | > 100 µM | > 100 µM (inactive) | > 100 µM (inactive) | > 100 µM (inactive) | > 100 µM (inactive) | > 100 µM (inactive) | > 100 µM (inactive) | > 100 µM (inactive)
COC1C=COC2(C)Oc3c(C)c(O)c4c(O)c(c(C5SCCS5)c(O)c4c3C2=O)NC(=O)/C(C)=C\C=CC(C)C(O)C(C)C(O)C(C)C(OC(C)=O)C1C (centres undefined) | 3.84 µM (inactive) | 4.26 µM (inactive) | 8.15 µM (inactive) | 5.71 µM (inactive) | 2.55 µM (inactive) | 4.88 µM (inactive) | 6.05 µM (inactive) | 6.43 µM (inactive) | 9.66 µM | 12.7 µM (inactive) | 13.4 µM (inactive) | 3.01 µM (inactive) | 3.49 µM (inactive) | 8.87 µM (inactive) | 1.29 µM (inactive) | 5.35 µM (inactive)
N#Cc1c(NC(=S)Nc2ccccc2)sc2c1CCCC2 | > 100 µM (inactive) | > 100 µM (inactive) | – | > 100 µM (inactive) | > 100 µM (inactive) | > 100 µM (inactive) | > 100 µM (inactive) | > 100 µM (inactive) | > 100 µM | > 100 µM (inactive) | > 100 µM (inactive) | > 100 µM (inactive) | > 100 µM (inactive) | > 100 µM (inactive) | > 100 µM (inactive) | > 100 µM (inactive)
COc1cccc(CC(C)NCC(O)c2ccc(O)c(O)c2)c1 (centres undefined) | 42.7 µM (inactive) | 51.6 µM (inactive) | 37.2 µM (inactive) | 10.8 µM (inactive) | 25 µM (inactive) | 32.3 µM (inactive) | > 100 µM (inactive) | > 100 µM (inactive) | 44.6 µM | 17.3 µM (inactive) | 57.1 µM (inactive) | 36.6 µM (inactive) | > 100 µM (inactive) | 37.8 µM (inactive) | 31.9 µM (inactive) | 55.5 µM (inactive)
Brc1ccc(-c2[nH]c3ccccc3c2/N=N\c2ccccc2)cc1 | 22 µM (inactive) | 17.1 µM (inactive) | 17.4 µM (inactive) | 19.1 µM (inactive) | 17.3 µM (inactive) | 20.9 µM (inactive) | 16.6 µM (inactive) | 20.5 µM (inactive) | 16.3 µM | 18.7 µM (inactive) | 20.7 µM (inactive) | 20.6 µM (inactive) | – | 18.2 µM (inactive) | 17.5 µM (inactive) | 16.5 µM (inactive)
S=C1NCCN1C(=S)NC1CCCCC1 | 21.4 µM (inactive) | 20.3 µM (inactive) | 21 µM (inactive) | 44.8 µM (inactive) | 38.2 µM (inactive) | – | 4.28 µM (inactive) | 34.8 µM (inactive) | 29 µM | > 100 µM (inactive) | 21.2 µM (inactive) | 32.7 µM (inactive) | 21.8 µM (inactive) | 37.9 µM (inactive) | 49.8 µM (inactive) | 24.4 µM (inactive)
COc1cc(C(c2c(O)c3ccccc3oc2=O)c2c(O)c3ccccc3oc2=O)cc(Br)c1O | 17 µM (inactive) | – | 15.6 µM (inactive) | 17.8 µM (inactive) | 15.8 µM (inactive) | 18.6 µM (inactive) | 17.4 µM (inactive) | 23.8 µM (inactive) | 17.7 µM | 23.5 µM (inactive) | 20.2 µM (inactive) | 17.4 µM (inactive) | 20 µM (inactive) | 17.7 µM (inactive) | 17.4 µM (inactive) | 17.5 µM (inactive)
CCO/C=N\c1c(C#N)c(-c2ccc(Cl)cc2)cn1-c1ccc(C)cc1 | > 100 µM (inactive) | > 100 µM (inactive) | > 100 µM (inactive) | > 100 µM (inactive) | > 100 µM (inactive) | > 100 µM (inactive) | > 100 µM (inactive) | > 100 µM (inactive) | > 100 µM | > 100 µM (inactive) | 95.9 µM (inactive) | > 100 µM (inactive) | > 100 µM (inactive) | > 100 µM (inactive) | > 100 µM (inactive) | –
Cc1nc2ccc(NC3OC(CO)C(O)C(O)C3O)cc2c(=O)n1-c1ccccc1 (centres undefined) | > 100 µM (inactive) | > 100 µM (inactive) | – | > 100 µM (inactive) | > 100 µM (inactive) | > 100 µM (inactive) | > 100 µM (inactive) | > 100 µM (inactive) | > 100 µM | > 100 µM (inactive) | > 100 µM (inactive) | > 100 µM (inactive) | > 100 µM (inactive) | > 100 µM (inactive) | > 100 µM (inactive) | 92.7 µM (inactive)
